Data: EP3301096A1, “BIS-INDOLE DERIVATIVES FOR USE IN THE TREATMENT OF BACTERIAL INFECTIONS” (Heinrich Heine Universität Düsseldorf, priority 2016, dated 2018)

Each compound was assayed on human monocyte cell line THP-1 (assay: Cytotoxicity, resazurin assay). Details: THP-1 cells, 48 h.
Format: cell-based
Procedure: (§1) The cytotoxicity of the compounds according to formulas (2), (3) and (4) and according to formulas (7), (11), (12) and (18) was determined in vitro using the human monocyte cell line THP-1 (Deutsche Sammlung von Mikroorganismen und Zellkulturen GmbH) and the human fetal lung fibroblast cell line MRC-5 (American Type Culture Collection).
(§2) THP-1 cells were cultured in RPMI 1640 medium containing 10% (v/v) fetal bovine serum (FBS), while MRC-5 cells were incubated in Dulbecco's Modified Eagles Medium (DMEM) containing 10% (v/v) FBS both at 37°C in a humidified atmosphere of 5% CO2. […] Cells treated with DMSO in a final concentration of 1% (v/v) served as DMSO toxicity controls. After an incubation time of 48 h, 10 µL resazurin solution (100 µg/mL) were added per well and incubated for further 3 h at 37°C in a humidified atmosphere of 5% CO2. Fluorescence was quantified using a microplate reader (excitation 540 nm, emission 590 nm). Growth was calculated relative to non-inoculated (i.e. cell-free) (0% growth) and untreated (100% growth) controls in triplicate experiments, respectively. For determination of the therapeutic index of the tested substances, the selectivity index (SI) was determined by the quotient of cytotoxic concentration and MIC. Compounds with SI ≥ 10 were characterized in further experiments.
For `Brc1ccc2[nH]cc(-c3cnc(-c4c[nH]c5ccc(Br)cc45)cn3)c2c1` [formula (3), 2,5-bis(5-bromo-1H-indole-3-yl)pyrazine], the “cytotoxic (inhibitory) concentration” value was 12.5 µM.

The compounds below were run on human fetal lung fibroblast cell line MRC-5 (assay: Cytotoxicity, resazurin assay). Details: MRC-5 cells, 48 h.
Format: cell-based
Procedure: as §1, §2
`Brc1ccc2[nH]cc(-c3cnc(-c4c[nH]c5ccc(Br)cc45)cn3)c2c1` [formula (3), 2,5-bis(5-bromo-1H-indole-3-yl)pyrazine] was tested, and the “cytotoxic (inhibitory) concentration” value was 12.5 µM.

What follows are compounds tested on M. tuberculosis H37Rv (assay: MIC determination, resazurin microplate assay). Details: Mycobacterium tuberculosis, 120 h, five days, range 100-0.78 µM.
Format: cell-based
With `Brc1ccc2c(-c3cnc(-c4c[nH]c5cc(Br)ccc45)cn3)c[nH]c2c1` [formula (6), 2,5-bis(6-bromo-1H-indole-3-yl)pyrazine] the MIC was > 100 µM. In the case of `c1ccc2c(-c3cc(-c4c[nH]c5ccccc45)ncn3)c[nH]c2c1` [formula (15), 4,6-di(1H-indole-3-yl)pyrimidine], the MIC is reported as > 100 µM. `Brc1ccc2[nH]cc(-c3cnc(-c4c[nH]c5ccc(Br)cc45)cn3)c2c1` [formula (3), 2,5-bis(5-bromo-1H-indole-3-yl)pyrazine] was tested, and the MIC was > 100 µM.

These compounds were tested on Staphylococcus aureus MRSA strain ATCC 700699 (assay: Time-kill curves in vitro (killing kinetics)). Details: after 6 h at five-fold MIC; inoculum 10^6 CFU/mL.
Format: cell-based
For `Brc1ccc2[nH]cc(-c3cnc(-c4c[nH]c5ccc(Br)cc45)cn3)c2c1` [formula (3), 2,5-bis(5-bromo-1H-indole-3-yl)pyrazine], the bacteria amount was 10^2 CFU/mL.

Same assay, conditions: five-fold MIC
In the case of `Brc1ccc2[nH]cc(-c3cnc(-c4c[nH]c5ccc(Br)cc45)cn3)c2c1` [formula (3), 2,5-bis(5-bromo-1H-indole-3-yl)pyrazine], the killing effect is reported as “strong bactericidal killing effect”.

Each compound was assayed on E. faecium ATCC 35667 (assay: MIC by broth microdilution method (CLSI)). Details: Enterococcus faecium, ATCC35667, 24 h.
Procedure: (§4) The compounds were tested for their antibacterial activities against the pathogenic nosocomial strains of Staphylococcus aureus, Enterococcus faecalis Enterococcus faecium, Acinetobacter baumannii. The minimal inhibitory concentration (MIC) was determined by the broth microdilution method according to the recommendations of the Clinical and Laboratory Standards Institute (CLSI) (CLSI M7-A9, 2012). For preparation of the inoculum the growth method was used. Bacterial cells were grown aerobically in Muller Hinton (MH) medium at 37°C and 180 rpm. A preculture was grown until log phase (OD600 nm ∼ 0.5) and then seeded at 5 x 10^4 bacteria/well in a total volume of 100 µL in 96 well round bottom microtiter plates and incubated with serially diluted test substances at a concentration range of 100-0.78 µM. The compounds were screened in two-fold serial dilution. Microplates were incubated aerobically at 37°C for 24 h. MICs were determined by identifying the minimum concentration of the compounds that led to complete inhibition of visual growth of the bacteria.
In the case of `Brc1ccc2c(-c3cnc(-c4c[nH]c5cc(Br)ccc45)cn3)c[nH]c2c1` [formula (6), 2,5-bis(6-bromo-1H-indole-3-yl)pyrazine], the MIC is reported as > 100 µM. In the case of `c1ccc2c(-c3cc(-c4c[nH]c5ccccc45)ncn3)c[nH]c2c1` [formula (15), 4,6-di(1H-indole-3-yl)pyrimidine], the MIC is reported as > 100 µM. In the case of `Brc1ccc2[nH]cc(-c3cnc(-c4c[nH]c5ccc(Br)cc45)cn3)c2c1` [formula (3), 2,5-bis(5-bromo-1H-indole-3-yl)pyrazine], the MIC is reported as > 100 µM.

Each compound was assayed on VR E. faecium ATCC 700221 (assay: MIC by broth microdilution method (CLSI)). Details: Enterococcus faecium, ATCC700221, 24 h.
Procedure: as §4
In the case of `Brc1ccc2c(-c3cnc(-c4c[nH]c5cc(Br)ccc45)cn3)c[nH]c2c1` [formula (6), 2,5-bis(6-bromo-1H-indole-3-yl)pyrazine], the MIC is reported as > 100 µM. With `c1ccc2c(-c3cc(-c4c[nH]c5ccccc45)ncn3)c[nH]c2c1` [formula (15), 4,6-di(1H-indole-3-yl)pyrimidine] the MIC was > 100 µM. With `Brc1ccc2[nH]cc(-c3cnc(-c4c[nH]c5ccc(Br)cc45)cn3)c2c1` [formula (3), 2,5-bis(5-bromo-1H-indole-3-yl)pyrazine] the MIC was > 100 µM.

Each compound was assayed on E. faecalis ATCC 29212 (assay: MIC by broth microdilution method (CLSI)). Details: Enterococcus faecalis, ATCC29212, 24 h.
`Brc1ccc2c(-c3cnc(-c4c[nH]c5cc(Br)ccc45)cn3)c[nH]c2c1` [formula (6), 2,5-bis(6-bromo-1H-indole-3-yl)pyrazine] was tested, and the MIC was > 100 µM. For `c1ccc2c(-c3cc(-c4c[nH]c5ccccc45)ncn3)c[nH]c2c1` [formula (15), 4,6-di(1H-indole-3-yl)pyrimidine], the MIC was > 100 µM. `Brc1ccc2[nH]cc(-c3cnc(-c4c[nH]c5ccc(Br)cc45)cn3)c2c1` [formula (3), 2,5-bis(5-bromo-1H-indole-3-yl)pyrazine] was tested, and the MIC was > 100 µM.

What follows are compounds tested on methicillin-resistant Staphylococcus aureus (assay: MIC quantified via the BacTiter-Glo assay). Details: methicillin-resistant strain; 24 h.
Format: cell-based
Procedure: (§3) The MICs of compounds according to formulas (2), (3), (4), (7), (11), (12) and (18) were additionally quantified via the BacTiter-Glo™ assay (Promega, Madison, WI, USA). Briefly, after an incubation time of 24 h, each well was resuspended by pipetting, and 50 µL aliquots were transferred into an opaque-walled multiwell plate. Additionally, control wells containing medium without cells to determine background luminescence were prepared. 50 µL BacTiter-Glo™ reagent were added to each well. Contents were mixed and incubated for five minutes at room temperature. Luminescence was measured using a microplate reader. Growth was calculated relative to the background luminescence (0% growth) and a compound-free DMSO control (100% growth).
`Brc1ccc2[nH]cc(-c3cnc(-c4c[nH]c5ccc(Br)cc45)cn3)c2c1` [formula (3), 2,5-bis(5-bromo-1H-indole-3-yl)pyrazine] was tested, and the “inhibition of Staphylococcus aureus (BacTiter-Glo)” value was “effectively inhibited”.

The compounds below were run on methicillin-sensitive Staphylococcus aureus (assay: MIC quantified via the BacTiter-Glo assay). Details: methicillin-sensitive strain; 24 h.
Format: cell-based
Procedure: as §3
With `Brc1ccc2[nH]cc(-c3cnc(-c4c[nH]c5ccc(Br)cc45)cn3)c2c1` [formula (3), 2,5-bis(5-bromo-1H-indole-3-yl)pyrazine] the “inhibition of Staphylococcus aureus (BacTiter-Glo)” value was “effectively inhibited”.

The compounds below were run on nosocomial pathogens and Mycobacterium tuberculosis (assay: MIC determination, statements across the tested strains). Details: tested concentration range 100-0.78 µM.
Format: cell-based
With `Brc1ccc2c(-c3cnc(-c4c[nH]c5cc(Br)ccc45)cn3)c[nH]c2c1` [formula (6), 2,5-bis(6-bromo-1H-indole-3-yl)pyrazine] the “activity against the tested strains” value was “no activity could be observed”.

The compounds below were run on S. aureus ATCC 25923 (assay: MIC by broth microdilution method (CLSI)). Details: Staphylococcus aureus, ATCC25923, 24 h.
In the case of `Brc1ccc2c(-c3cnc(-c4c[nH]c5cc(Br)ccc45)cn3)c[nH]c2c1` [formula (6), 2,5-bis(6-bromo-1H-indole-3-yl)pyrazine], the MIC is reported as > 100 µM. For `c1ccc2c(-c3cc(-c4c[nH]c5ccccc45)ncn3)c[nH]c2c1` [formula (15), 4,6-di(1H-indole-3-yl)pyrimidine], the MIC was > 100 µM. With `Brc1ccc2[nH]cc(-c3cnc(-c4c[nH]c5ccc(Br)cc45)cn3)c2c1` [formula (3), 2,5-bis(5-bromo-1H-indole-3-yl)pyrazine] the MIC was 1.56 µM.

These compounds were tested on Methicillin resistant S. aureus (MRSA; ATCC 700699) (assay: Resistance development during time-kill kinetics). Details: after 6 and 24 h of incubation, plated on agar with 5x MIC.
Format: cell-based, Staphylococcus aureus
Procedure: Additionally, the resistance rate of the cultures was determined after 6 and 24 h of incubation. For this, 20 µL of the cultures were plated on 1 mL MH agar containing the five-fold MIC of the compounds (for the compound according to formula (2) and (4): 2 µM, for the compound according to formula (3): 8 µM). After an incubation time of 24 h at 37°C, the colonies were counted. The resistance rate was determined as quotient of the number of resistant colonies on compound containing agar and the total amount of viable bacteria at the corresponding time points.
Two independent cultures C1 and C2 were tested for each attempt. Compounds were tested at 5x MIC resulting in 0.02-0.08% DMSO final concentration. In an independent experiment, medium was replaced and compounds were freshly added after 6 h, denoted "freshly added" in the Figure. 20 µL of different dilution of the cultures after either 6 or 24 h of incubation were plated out on MH agar containing either no antibiotics, which is denoted (*) or the compounds of formulas (2) and (3) at 5x MIC, respectively.
`Brc1ccc2[nH]cc(-c3cnc(-c4c[nH]c5ccc(Br)cc45)cn3)c2c1` [formula (3), 2,5-bis(5-bromo-1H-indole-3-yl)pyrazine] was tested, and the “level of resistance in treated cultures” value was “no significant level of resistance was detectable”.

The compounds below were run on E. faecalis ATCC 51299 (assay: MIC by broth microdilution method (CLSI)). Details: Enterococcus faecalis, ATCC51299, 24 h.
Procedure: as §4
`Brc1ccc2c(-c3cnc(-c4c[nH]c5cc(Br)ccc45)cn3)c[nH]c2c1` [formula (6), 2,5-bis(6-bromo-1H-indole-3-yl)pyrazine] was tested, and the MIC was > 100 µM. In the case of `c1ccc2c(-c3cc(-c4c[nH]c5ccccc45)ncn3)c[nH]c2c1` [formula (15), 4,6-di(1H-indole-3-yl)pyrimidine], the MIC is reported as > 100 µM. With `Brc1ccc2[nH]cc(-c3cnc(-c4c[nH]c5ccc(Br)cc45)cn3)c2c1` [formula (3), 2,5-bis(5-bromo-1H-indole-3-yl)pyrazine] the MIC was > 100 µM.

Each compound was assayed on MRSA ATCC 700699 (assay: MIC by broth microdilution method (CLSI)). Details: Staphylococcus aureus, 24 h.
For `Brc1ccc2c(-c3cnc(-c4c[nH]c5cc(Br)ccc45)cn3)c[nH]c2c1` [formula (6), 2,5-bis(6-bromo-1H-indole-3-yl)pyrazine], the MIC was > 100 µM. In the case of `c1ccc2c(-c3cc(-c4c[nH]c5ccccc45)ncn3)c[nH]c2c1` [formula (15), 4,6-di(1H-indole-3-yl)pyrimidine], the MIC is reported as > 100 µM. Work on `Brc1ccc2[nH]cc(-c3cnc(-c4c[nH]c5ccc(Br)cc45)cn3)c2c1` [formula (3), 2,5-bis(5-bromo-1H-indole-3-yl)pyrazine] yielded an MIC of 1.56 µM.
